Results taken from US20240270821A1, “GIP/GLP1/GCG TRI-RECEPTOR AGONISTS AND USES THEREOF” (priority 2023, published 2024).
Like-named read-outs stand apart in the source and are kept apart here. Starred links: 1 amine or outer side, 2 acyl side, 3 side chain; linkers in the order of their positions; H or OH if unused. Non-standard residues stand in square brackets, D forms with d. Residues, ends and D or L forms follow the SMILES beside them. Groups on a side chain read outwards from the residue. No end group written: not given here. *: point of attachment. C20 diacid = O=C(O)CCCCCCCCCCCCCCCCCCC(=O)*; C18 diacid = O=C(O)CCCCCCCCCCCCCCCCC(=O)*; Phe(4-CN) = N#Cc1ccc(C[C@H](N)C(=O)O)cc1; αMePhe(2-F) = C[C@](N)(Cc1ccccc1F)C(=O)O; γGlu = O=C(O)[C@H](CCC(=O)[*:2])N[*:1]; αMe4Pal = C[C@](N)(Cc1ccncc1)C(=O)O; αMeY = C[C@](N)(Cc1ccc(O)cc1)C(=O)O; αMeF = C[C@](N)(Cc1ccccc1)C(=O)O; 4Pal = N[C@@H](Cc1ccncc1)C(=O)O; αMeL = CC(C)C[C@](C)(N)C(=O)O; αMeS = C[C@](N)(CO)C(=O)O; Orn = NCCC[C@H](N)C(=O)O; AEEA = NCCOCCOCC(=O)O; Aib = CC(C)(N)C(=O)O

Tests used:
Format in all cases: cell-based
[1] = target: T1, hGIPR (Homo sapiens, UniProt P48546); assay: Functional cAMP activity in the presence of 1% HSA; details: read-out: cAMP Rel EC50, hGIPR
T1 sequence (P48546 22-466): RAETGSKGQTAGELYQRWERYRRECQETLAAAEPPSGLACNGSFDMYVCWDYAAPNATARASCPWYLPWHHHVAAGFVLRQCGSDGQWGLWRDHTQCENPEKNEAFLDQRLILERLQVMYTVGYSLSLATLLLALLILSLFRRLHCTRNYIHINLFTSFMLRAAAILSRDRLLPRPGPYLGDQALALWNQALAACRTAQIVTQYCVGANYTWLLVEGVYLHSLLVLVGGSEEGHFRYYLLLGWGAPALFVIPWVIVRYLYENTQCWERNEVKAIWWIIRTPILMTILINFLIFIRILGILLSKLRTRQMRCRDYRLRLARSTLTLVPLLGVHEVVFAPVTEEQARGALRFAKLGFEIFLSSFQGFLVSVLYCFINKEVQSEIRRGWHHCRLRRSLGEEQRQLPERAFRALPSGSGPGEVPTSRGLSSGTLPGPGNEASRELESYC

[2] = target: T2, hGLP-1R (Homo sapiens, UniProt P43220); assay: Functional cAMP activity in the presence of 1% HSA; details: read-out: cAMP Rel EC50, hGLP-1R
[3] = target: human GcgR (Homo sapiens, UniProt P47871); assay: Functional cAMP activity in the presence of 1% HSA; details: read-out: cAMP Rel EC50, hGcgR
[4] = target: T1, hGIPR; assay: Functional cAMP activation in the presence of 0.1% casein (no HSA); details: read-out: Relative cAMP EC50, hGIPR;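 on Relative cAMP EC50, hGIPR: intracellular cAMP rise after 30 min at 37 °C read by HTRF against a standard curve, scaled between buffer alone (0%) and top control ligand concentration (100%), four-parameter fit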;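 on Relative cAMP EC50, hGLP-1R: intracellular cAMP rise after 30 min at 37 °C read by HTRF, normalized between buffer only (0%) and maximal control ligand (100%), four-parameter variable-slope fit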;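 on Relative cAMP EC50, hGcgR: intracellular cAMP rise after 30 min at 37 °C, read by HTRF against a cAMP standard curve, scaled from buffer only (0%) to maximal control ligand response (100%)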
[5] = target: T2, hGLP-1R; assay: as above; details: read-out: Relative cAMP EC50, hGLP-1R
[6] = target: hGcgR (Homo sapiens, UniProt P47871); assay: as above; details: read-out: Relative cAMP EC50, hGcgR;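 further: intracellular cAMP rise after 30 min at 37 °C, read by HTRF against a cAMP standard curve, scaled from buffer only (0%) to maximal control ligand response (100%)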
[7] = in the presence of 0.1% casein (no HSA), geometric mean
[8] = 0.1% casein, no HSA, geometric mean
[9] = HEK-293 clonal cell line, in the presence of 1% HSA, geometric mean of relative EC50

Chain of hGcgR (P47871 26-477): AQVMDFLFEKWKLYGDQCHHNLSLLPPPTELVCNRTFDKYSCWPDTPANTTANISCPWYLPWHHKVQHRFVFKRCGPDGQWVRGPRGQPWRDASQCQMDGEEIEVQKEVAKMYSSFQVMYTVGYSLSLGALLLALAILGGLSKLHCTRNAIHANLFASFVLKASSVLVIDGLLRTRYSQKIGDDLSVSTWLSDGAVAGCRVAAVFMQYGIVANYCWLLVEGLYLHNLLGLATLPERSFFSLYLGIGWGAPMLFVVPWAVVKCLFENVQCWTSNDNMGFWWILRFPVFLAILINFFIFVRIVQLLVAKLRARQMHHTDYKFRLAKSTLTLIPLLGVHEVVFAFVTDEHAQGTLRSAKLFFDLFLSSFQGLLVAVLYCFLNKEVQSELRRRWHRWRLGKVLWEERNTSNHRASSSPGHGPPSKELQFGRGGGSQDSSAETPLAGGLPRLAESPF
Chain of human GcgR (P47871 26-477): as above
T2 sequence (P43220 24-463): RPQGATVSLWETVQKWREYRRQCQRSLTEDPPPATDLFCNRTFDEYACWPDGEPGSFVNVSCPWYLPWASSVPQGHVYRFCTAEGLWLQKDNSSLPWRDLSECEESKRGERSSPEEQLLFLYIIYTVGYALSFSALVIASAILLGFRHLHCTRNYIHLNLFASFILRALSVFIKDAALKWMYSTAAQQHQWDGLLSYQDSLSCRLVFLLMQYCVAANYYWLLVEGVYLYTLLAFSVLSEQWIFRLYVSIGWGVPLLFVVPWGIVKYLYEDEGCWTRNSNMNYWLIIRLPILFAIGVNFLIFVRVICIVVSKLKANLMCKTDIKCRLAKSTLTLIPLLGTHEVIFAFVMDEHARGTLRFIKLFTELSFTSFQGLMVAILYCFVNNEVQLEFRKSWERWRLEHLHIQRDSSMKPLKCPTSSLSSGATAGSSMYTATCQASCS

Row | Compound | EC50 [1] [nM] | EC50 [2] [nM] | EC50 [3] [nM] | EC50 [4, 7] [nM] | EC50 [5, 7] [nM] | EC50 [6, 7] [nM] | EC50 [4] [nM] | EC50 [5] [nM] | EC50 [6] [nM] | EC50 [4, 8] [nM] | EC50 [5, 8] [nM] | EC50 [6, 8] [nM] | EC50 [1, 9] [nM] | EC50 [2, 9] [nM] | EC50 [3, 9] [nM]
1 | Y[Aib]QGT[αMeF]TSD[4Pal][αMeS]I[αMeL]LD[Orn]K([AEEA-γGlu-C18 diacid])AQ[αMe4Pal]EFI[dE][αMeY]LIEGGPSSGEPPPSGE-NH2 [Example 1165] | 1.36 | 87.7 | 358 | 0.0121 | 0.632 | 2.68 | – | – | – | – | – | – | – | – | –
2 | H-Y[Aib]QGT[αMePhe(2-F)]TSD[4Pal]SI[αMeL]LD[Orn]K([γGlu-γGlu-C18 diacid])AQ[αMe4Pal][Orn]FI[dE][αMeY]LIEGGPSSGEPPPSGE-NH2 [Example 682] | 0.415 | 14 | 127 | – | – | – | 0.00661 | 0.212 | 1.91 | – | – | – | – | – | –
3 | Y[Aib]QGT[αMePhe(2-F)]TSD[4Pal][αMeS]I[αMeL]LD[Orn]K([Glu-γGlu-C18 diacid])AQ[Aib][Orn]FI[dE][αMeY]LSEGGPSSGEPPPSGTEE-NH2 [Example 564] | 10.8 | 101 | 667 | – | – | – | 0.176 | 1.33 | 10.2 | – | – | – | – | – | –
4 | Y[Aib]QGT[αMePhe(2-F)]TSD[4Pal][αMeS]I[αMeL]LD[Orn]K([γGlu-γGlu-C18 diacid])AQ[αMe4Pal]EFI[dE][αMeY]LIEGGPSSGAPPPEGGGEEE-NH2 [Example 1221] | 0.814 | 57.8 | 185 | – | – | – | – | – | – | 0.0111 | 0.839 | 2.27 | – | – | –
5 | CC[C@H](C)[C@H](NC(=O)[C@H](CCCCN)NC(=O)[C@H](CC(=O)O)NC(=O)[C@H](CC(C)C)NC(=O)[C@H](CC(C)C)NC(=O)[C@@H](NC(=O)[C@H](CO)NC(=O)[C@H](Cc1ccc(O)cc1)NC(=O)[C@H](CC(=O)O)NC(=O)[C@H](CO)NC(=O)[C@@H](NC(=O)[C@](C)(Cc1ccccc1F)NC(=O)[C@@H](NC(=O)CNC(=O)[C@H](CCC(N)=O)NC(=O)C(C)(C)NC(=O)[C@@H](N)Cc1ccc(O)cc1)[C@@H](C)O)[C@@H](C)O)[C@@H](C)CC)C(=O)N[C@@H](C)C(=O)N[C@@H](CCC(N)=O)C(=O)NC(C)(C)C(=O)N[C@@H](C)C(=O)N[C@@H](Cc1ccccc1)C(=O)N[C@H](C(=O)N[C@@H](CCCCNC(=O)COCCOCCNC(=O)CC[C@H](NC(=O)CCCCCCCCCCCCCCCCC(=O)O)C(=O)O)C(=O)N[C@@H](Cc1ccc(O)cc1)C(=O)N[C@@H](CC(C)C)C(=O)N[C@@H](CCC(=O)O)C(=O)N[C@@H](CCC(=O)O)C(=O)NCC(=O)NCC(=O)N1CCC[C@H]1C(=O)N[C@@H](CO)C(=O)N[C@@H](CO)C(=O)NCC(=O)N[C@@H](C)C(=O)N1CCC[C@H]1C(=O)N1CCC[C@H]1C(=O)N1CCC[C@H]1C(=O)N[C@@H](CO)C(N)=O)[C@@H](C)CC [Example 430] (H-Y[Aib]QGT[αMePhe(2-F)]TSDYSILLDKIAQ[Aib]AFIK([AEEA-γGlu-C18 diacid])YLEEGGPSSGAPPPS-NH2; N-terminus assumed) | 4.65 | 78.9 | 559 | – | – | – | 0.0144 | 0.438 | 2.11 | – | – | – | – | – | –
6 | H-Y[Aib]QGTFTSDFS[Orn][αMeL]LD[Orn]K([γGlu-γGlu-C18 diacid])AQ[Aib]AFIEYLLEGGPSSGAPPPGGSEE-NH2 [Example 1048] | – | – | – | 0.356 | 6.23 | 6.9 | – | – | – | – | – | – | 108 | 1900 | 1930
7 | H-Y[Aib]QGTFTSDFS[Orn][αMeL]LDKK([AEEA-γGlu-C18 diacid])AQ[αMe4Pal]DFIEYLIE[Aib]GPSSGAPPPSGS-NH2 [Example 880] | 76.2 | 943 | 562 | 0.116 | 7.69 | 3.53 | – | – | – | – | – | – | – | – | –
8 | H-Y[Aib]QGT[αMePhe(2-F)]TSD[4Pal]SI[αMeL]LD[Orn]K([γGlu-γGlu-C18 diacid])AQ[αMe4Pal]EFI[dE][αMeY]LQEGGPSSGEPPPSGS-NH2 [Example 649] | 0.76 | 62.9 | 669 | – | – | – | 0.0221 | 1.35 | 21.2 | – | – | – | – | – | –
9 | H-Y[Aib]Q[dA]T[αMePhe(2-F)]TSD[4Pal][αMeS]I[αMeL]LD[Orn]K([AEEA-γGlu-C18 diacid])AQ[αMe4Pal]EFI[dE][αMeY]LIEGGPSSGEPPPSGTGE-NH2 [Example 766] | 14.1 | 32.5 | 65.7 | – | – | – | 0.0323 | 0.273 | 0.689 | – | – | – | – | – | –
10 | H-Y[Aib]QGT[αMePhe(2-F)]TSD[4Pal][αMeS]I[αMeL]LD[Orn]K([γGlu-γGlu-C18 diacid])AQ[Aib][Orn]FI[dE][αMeY]LQEGGPSSGEPPPSGTEEE-NH2 [Example 573] | 3.15 | 31.6 | 388 | – | – | – | 0.0342 | 0.416 | 4.02 | – | – | – | – | – | –
11 | CC[C@H](C)[C@H](NC(=O)[C@H](Cc1ccccc1)NC(=O)[C@H](CCCN)NC(=O)C(C)(C)NC(=O)[C@H](CCC(N)=O)NC(=O)[C@H](C)NC(=O)[C@H](CCCCNC(=O)[C@H](CCC(=O)O)NC(=O)CC[C@H](NC(=O)CCCCCCCCCCCCCCCCC(=O)O)C(=O)O)NC(=O)[C@H](CCCN)NC(=O)[C@H](CC(=O)O)NC(=O)[C@H](CC(C)C)NC(=O)[C@](C)(CC(C)C)NC(=O)[C@@H](NC(=O)[C@](C)(CO)NC(=O)[C@H](Cc1ccncc1)NC(=O)[C@H](CC(=O)O)NC(=O)[C@H](CO)NC(=O)[C@@H](NC(=O)[C@](C)(Cc1ccccc1F)NC(=O)[C@@H](NC(=O)CNC(=O)[C@H](CCC(N)=O)NC(=O)C(C)(C)NC(=O)[C@@H](N)Cc1ccc(O)cc1)[C@@H](C)O)[C@@H](C)O)[C@@H](C)CC)C(=O)N[C@H](CCC(=O)O)C(=O)N[C@@](C)(Cc1ccc(O)cc1)C(=O)N[C@@H](CC(C)C)C(=O)N[C@@H](CCC(N)=O)C(=O)N[C@@H](CCC(=O)O)C(=O)NCC(=O)NCC(=O)N1CCC[C@H]1C(=O)N[C@@H](CO)C(=O)N[C@@H](CO)C(=O)NCC(=O)N[C@@H](CCC(=O)O)C(=O)N1CCC[C@H]1C(=O)N1CCC[C@H]1C(=O)N1CCC[C@H]1C(=O)N[C@@H](CCC(=O)O)C(=O)NCC(=O)N[C@H](C(=O)N[C@@H](CCC(=O)O)C(=O)N[C@@H](CCC(=O)O)C(N)=O)[C@@H](C)O [Example 593] | 2.71 | 35.3 | 591 | – | – | – | 0.0484 | 0.495 | 6.57 | – | – | – | – | – | –
12 | H-Y[Aib]QGTFTSD[4Pal]SQ[αMeL]LD[Orn]K([γGlu-γGlu-C18 diacid])AQ[αMe4Pal]AFIEYLIE[Aib]GPSSGAPPPSGSEE-NH2 [Example 937] | 19.7 | 261 | 1160 | 0.222 | 2.52 | 5.52 | – | – | – | – | – | – | – | – | –
13 | H-Y[Aib]QGTFTSDFS[Orn][αMeL]LDKK([γGlu-AEEA-γGlu-C18 diacid])AQ[Aib]AFIEYLLE[Aib]GHSSGAPPPSGS-NH2 [Example 245] | 10.5 | 540 | 1120 | 0.0684 | 5.99 | 7.07 | – | – | – | – | – | – | – | – | –
14 | H-Y[Aib]QGT[αMePhe(2-F)]TSD[Phe(4-CN)]SILLDKQAQK([AEEA-AEEA-γGlu-C20 diacid])AFIQYLLEGGPSSGEPPPSEG-NH2 [Example 353] | 53.7 | 222 | 3080 | 0.127 | 0.634 | 11 | – | – | – | – | – | – | – | – | –
15 | H-Y[Aib]QGTFTSD[4Pal]SQ[αMeL]LDKK([γGlu-γGlu-C18 diacid])AQ[αMe4Pal]AFIEWLIEGGPSSGAPPPSGS-NH2 [Example 872] | 30.1 | 287 | 1890 | 0.205 | 1.01 | 4.18 | – | – | – | – | – | – | – | – | –
16 | H-Y[Aib]QGT[αMePhe(2-F)]TSD[4Pal]SI[αMeL]LDKK([γGlu-γGlu-C18 diacid])AQ[Aib]AFIEYLEEGGPSSGEPPPSGEGE-NH2 [Example 625] | 1.81 | 72.1 | 657 | – | – | – | 0.0291 | 1.16 | 8.53 | – | – | – | – | – | –
17 | H-Y[Aib]QGTFTSDFS[Orn][αMeL]LDKK([AEEA-γGlu-C18 diacid])AQ[Aib]AFIEYLLAGGPSSGAPPPSGSQ-OH [Example 88] | 24.7 | 363 | 915 | 0.177 | 3.45 | 7.48 | – | – | – | – | – | – | – | – | –
